Reference: patent US6613718B2, “Aryl ether derivatives and processes for their preparation and herbicidal and desiccant compositions containing them” (Ishihara Sangyo Kaisha, Ltd., priority 2001, dated 2003)

How the values were obtained:
Format in all cases: in vivo
[1] = tested on: upland rice (Oryza sp., var.Tebonnet, RICE); assay: Post-emerge greenhouse screening, crop safety (phytotoxicity rating); conditions: 14 days after application
Outline: (§1)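 Track-sprayer application, nozzle 40-45 cm above soil or canopy; compound in acetone at 15 to 1000 g ai/ha. Visual 0–100 rating at 14 days after treatment.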

[2] = tested on: soybean (Glycine max L., var. Pella 86, SOY); assay: as above; conditions: 14 days after application
Outline: as §1

[3] = tested on: upland rice (Oryza sp., var.Tebonnet, RICE); assay: Pre-emerge greenhouse screening, crop safety (phytotoxicity rating); conditions: 14 days after application
Outline: as §1

[4] = tested on: field corn (Zea mays L., var. Dekalb 535, CORN); assay: as above; conditions: 14 days after application
Outline: as §1

[5] = tested on: soybean (Glycine max L., var. Pella 86, SOY); assay: as above; conditions: 14 days after application
Outline: as §1

[6] = tested on: green foxtail (Setaria viridis, SETVI); assay: Post-emerge greenhouse herbicide activity screening, phytotoxicity rating
Outline: as §1

[7] = tested on: sicklepod (Cassia obtusifolia, CASOB); assay: as above
Outline: as §1

[8] = tested on: redroot pigweed (Amaranthus retroflexus, AMARE); assay: as above
Outline: as §1

[9] = tested on: large crabgrass (Digitaria sanguinalis, DIGSA); assay: as above; conditions: 14 days after application
Outline: as §1

[10] = tested on: velvetleaf (Abutilon theophrasti, ABUTH); assay: as above; conditions: 14 days after application
Outline: as §1

[11] = tested on: lambsquarters (Chenopodium album, CHEAL); assay: as above
Outline: as §1

[12] = tested on: johnsongrass (Sorghum halepense, SORHA); assay: as above; conditions: 14 days after application
Outline: as §1

[13] = tested on: ivyleaf morningglory (Ipomoea hederacea, IPOHE); assay: as above; conditions: 14 days after application
Outline: as §1

[14] = tested on: barnyardgrass (Echinochloa crus-galli, ECHCG); assay: as above; conditions: 14 days after application
Outline: as §1

[15] = tested on: common ragweed (Ambrosia artemisiifolia L., AMBEL); assay: as above
Outline: as §1

[16] = tested on: field corn (Zea mays L., var. Dekalb 535, CORN); assay: Post-emerge greenhouse screening, crop safety / corn selectivity (phytotoxicity rating); conditions: for CORN crop damage, phytotoxicity rating (0-100 scale): 14 days after application
Outline: as §1

[17] = tested on: green foxtail (Setaria viridis, SETVI); assay: Pre-emerge greenhouse herbicide activity screening, phytotoxicity rating; conditions: 14 days after application
Outline: as §1

[18] = tested on: sicklepod (Cassia obtusifolia, CASOB); assay: as above; conditions: 14 days after application
Outline: as §1

[19] = tested on: redroot pigweed (Amaranthus retroflexus, AMARE); assay: as above; conditions: 14 days after application
Outline: as §1

[20] = tested on: large crabgrass (Digitaria sanguinalis, DIGSA); assay: as above; conditions: 14 days after application
Outline: as §1

[21] = tested on: velvetleaf (Abutilon theophrasti, ABUTH); assay: as above; conditions: 14 days after application
Outline: as §1

[22] = tested on: lambsquarters (Chenopodium album, CHEAL); assay: as above; conditions: 14 days after application
Outline: as §1

[23] = tested on: johnsongrass (Sorghum halepense, SORHA); assay: as above; conditions: 14 days after application
Outline: as §1

[24] = tested on: ivyleaf morningglory (Ipomoea hederacea, IPOHE); assay: as above; conditions: 14 days after application
Outline: as §1

[25] = tested on: barnyardgrass (Echinochloa crus-galli, ECHCG); assay: as above; conditions: 14 days after application
Outline: as §1

[26] = tested on: common ragweed (Ambrosia artemisiifolia L., AMBEL); assay: as above; conditions: 14 days after application
Outline: as §1

[27] = 125 g ai/ha, 14 days after application
[28] = 250 g ai/ha, 14 days after application

Cn1c(=S)n(C)c(=O)n(-c2cc(Oc3ccccc3[N+](=O)[O-])c(Cl)cc2F)c1=O [Compound 2-17]
RICE crop damage, phytotoxicity rating (0-100 scale) ([1]; 125 g ai/ha): 0 | RICE crop damage, phytotoxicity rating (0-100 scale) ([1]; 250 g ai/ha): 0 | SOY crop damage, phytotoxicity rating (0-100 scale) ([2]; 125 g ai/ha): 0 | SOY crop damage, phytotoxicity rating (0-100 scale) ([2]; 250 g ai/ha): 25 | RICE crop damage, phytotoxicity rating (0-100 scale) ([3]; 125 g ai/ha): 0 | RICE crop damage, phytotoxicity rating (0-100 scale) ([3]; 250 g ai/ha): 0 | CORN crop damage, phytotoxicity rating (0-100 scale) ([4]; 125 g ai/ha): 0 | CORN crop damage, phytotoxicity rating (0-100 scale) ([4]; 250 g ai/ha): 0 | SOY crop damage, phytotoxicity rating (0-100 scale) ([5]; 125 g ai/ha): 0 | SOY crop damage, phytotoxicity rating (0-100 scale) ([5]; 250 g ai/ha): 10 | SETVI phytotoxicity rating (0-100 scale) ([6]; 31.3 g ai/ha): 0 | SETVI phytotoxicity rating (0-100 scale) ([6]; 62.5 g ai/ha): 0 | SETVI phytotoxicity rating (0-100 scale) [6, 27]: 0 | SETVI phytotoxicity rating (0-100 scale) [6, 28]: 0 | CASOB phytotoxicity rating (0-100 scale) ([7]; 31.3 g ai/ha): 0 | CASOB phytotoxicity rating (0-100 scale) ([7]; 62.5 g ai/ha): 0 | CASOB phytotoxicity rating (0-100 scale) [7, 27]: 25 | CASOB phytotoxicity rating (0-100 scale) [7, 28]: 65 | AMARE phytotoxicity rating (0-100 scale) ([8]; 31.3 g ai/ha): 80 | AMARE phytotoxicity rating (0-100 scale) ([8]; 62.5 g ai/ha): 80 | AMARE phytotoxicity rating (0-100 scale) [8, 27]: 80 | AMARE phytotoxicity rating (0-100 scale) [8, 28]: 80 | DIGSA phytotoxicity rating (0-100 scale) ([9]; 125 g ai/ha): 0 | DIGSA phytotoxicity rating (0-100 scale) ([9]; 250 g ai/ha): 35 | ABUTH phytotoxicity rating (0-100 scale) ([10]; 125 g ai/ha): 95 | ABUTH phytotoxicity rating (0-100 scale) ([10]; 250 g ai/ha): 98 | CHEAL phytotoxicity rating (0-100 scale) ([11]; 31.3 g ai/ha): 90 | CHEAL phytotoxicity rating (0-100 scale) ([11]; 62.5 g ai/ha): 90 | CHEAL phytotoxicity rating (0-100 scale) [11, 27]: 95 | CHEAL phytotoxicity rating (0-100 scale) [11, 28]: 95 | SORHA phytotoxicity rating (0-100 scale) ([12]; 125 g ai/ha): 0 | SORHA phytotoxicity rating (0-100 scale) ([12]; 250 g ai/ha): 0 | IPOHE phytotoxicity rating (0-100 scale) ([13]; 125 g ai/ha): 0 | IPOHE phytotoxicity rating (0-100 scale) ([13]; 250 g ai/ha): 0 | ECHCG phytotoxicity rating (0-100 scale) ([14]; 125 g ai/ha): 0 | ECHCG phytotoxicity rating (0-100 scale) ([14]; 250 g ai/ha): 25 | AMBEL phytotoxicity rating (0-100 scale) ([15]; 31.3 g ai/ha): 50 | AMBEL phytotoxicity rating (0-100 scale) ([15]; 62.5 g ai/ha): 50 | AMBEL phytotoxicity rating (0-100 scale) [15, 27]: 60 | AMBEL phytotoxicity rating (0-100 scale) [15, 28]: 75 | CORN selectivity, phytotoxicity rating (0-100 scale) ([16]; 62.5 g ai/ha): 3 | CORN crop damage, phytotoxicity rating (0-100 scale) ([16]; 125 g ai/ha): 5 | CORN crop damage, phytotoxicity rating (0-100 scale) ([16]; 250 g ai/ha): 8 | SETVI phytotoxicity rating (0-100 scale) ([17]; 125 g ai/ha): 85 | SETVI phytotoxicity rating (0-100 scale) ([17]; 250 g ai/ha): 98 | CASOB phytotoxicity rating (0-100 scale) ([18]; 125 g ai/ha): 0 | CASOB phytotoxicity rating (0-100 scale) ([18]; 250 g ai/ha): 30 | AMARE phytotoxicity rating (0-100 scale) ([19]; 125 g ai/ha): 99 | AMARE phytotoxicity rating (0-100 scale) ([19]; 250 g ai/ha): 100 | DIGSA phytotoxicity rating (0-100 scale) ([20]; 125 g ai/ha): 60 | DIGSA phytotoxicity rating (0-100 scale) ([20]; 250 g ai/ha): 80 | ABUTH phytotoxicity rating (0-100 scale) ([21]; 125 g ai/ha): 60 | ABUTH phytotoxicity rating (0-100 scale) ([21]; 250 g ai/ha): 70 | CHEAL phytotoxicity rating (0-100 scale) ([22]; 125 g ai/ha): 100 | CHEAL phytotoxicity rating (0-100 scale) ([22]; 250 g ai/ha): 100 | SORHA phytotoxicity rating (0-100 scale) ([23]; 125 g ai/ha): 25 | SORHA phytotoxicity rating (0-100 scale) ([23]; 250 g ai/ha): 50 | IPOHE phytotoxicity rating (0-100 scale) ([24]; 125 g ai/ha): 30 | IPOHE phytotoxicity rating (0-100 scale) ([24]; 250 g ai/ha): 50 | ECHCG phytotoxicity rating (0-100 scale) ([25]; 125 g ai/ha): 30 | ECHCG phytotoxicity rating (0-100 scale) ([25]; 250 g ai/ha): 30 | AMBEL phytotoxicity rating (0-100 scale) ([26]; 125 g ai/ha): 0 | AMBEL phytotoxicity rating (0-100 scale) ([26]; 250 g ai/ha): 0

Cn1c(=S)n(C)c(=O)n(-c2cc(Oc3ccccc3N)c(Cl)cc2F)c1=O [Compound 2-18]
RICE crop damage, phytotoxicity rating (0-100 scale) ([1]; 125 g ai/ha): 0 | RICE crop damage, phytotoxicity rating (0-100 scale) ([1]; 250 g ai/ha): 0 | SOY crop damage, phytotoxicity rating (0-100 scale) ([2]; 125 g ai/ha): 0 | SOY crop damage, phytotoxicity rating (0-100 scale) ([2]; 250 g ai/ha): 0 | RICE crop damage, phytotoxicity rating (0-100 scale) ([3]; 125 g ai/ha): 0 | RICE crop damage, phytotoxicity rating (0-100 scale) ([3]; 250 g ai/ha): 0 | CORN crop damage, phytotoxicity rating (0-100 scale) ([4]; 125 g ai/ha): 0 | CORN crop damage, phytotoxicity rating (0-100 scale) ([4]; 250 g ai/ha): 5 | SOY crop damage, phytotoxicity rating (0-100 scale) ([5]; 125 g ai/ha): 0 | SOY crop damage, phytotoxicity rating (0-100 scale) ([5]; 250 g ai/ha): 0 | SETVI phytotoxicity rating (0-100 scale) [6, 27]: 50 | SETVI phytotoxicity rating (0-100 scale) [6, 28]: 50 | CASOB phytotoxicity rating (0-100 scale) [7, 27]: 0 | CASOB phytotoxicity rating (0-100 scale) [7, 28]: 0 | AMARE phytotoxicity rating (0-100 scale) [8, 27]: 80 | AMARE phytotoxicity rating (0-100 scale) [8, 28]: 80 | DIGSA phytotoxicity rating (0-100 scale) ([9]; 125 g ai/ha): 0 | DIGSA phytotoxicity rating (0-100 scale) ([9]; 250 g ai/ha): 0 | ABUTH phytotoxicity rating (0-100 scale) ([10]; 125 g ai/ha): 0 | ABUTH phytotoxicity rating (0-100 scale) ([10]; 250 g ai/ha): 40 | CHEAL phytotoxicity rating (0-100 scale) [11, 27]: 70 | CHEAL phytotoxicity rating (0-100 scale) [11, 28]: 70 | SORHA phytotoxicity rating (0-100 scale) ([12]; 125 g ai/ha): 0 | SORHA phytotoxicity rating (0-100 scale) ([12]; 250 g ai/ha): 0 | IPOHE phytotoxicity rating (0-100 scale) ([13]; 125 g ai/ha): 0 | IPOHE phytotoxicity rating (0-100 scale) ([13]; 250 g ai/ha): 0 | ECHCG phytotoxicity rating (0-100 scale) ([14]; 125 g ai/ha): 0 | ECHCG phytotoxicity rating (0-100 scale) ([14]; 250 g ai/ha): 35 | AMBEL phytotoxicity rating (0-100 scale) [15, 27]: 0 | AMBEL phytotoxicity rating (0-100 scale) [15, 28]: 0 | CORN crop damage, phytotoxicity rating (0-100 scale) ([16]; 125 g ai/ha): 0 | CORN crop damage, phytotoxicity rating (0-100 scale) ([16]; 250 g ai/ha): 0 | SETVI phytotoxicity rating (0-100 scale) ([17]; 125 g ai/ha): 60 | SETVI phytotoxicity rating (0-100 scale) ([17]; 250 g ai/ha): 95 | CASOB phytotoxicity rating (0-100 scale) ([18]; 125 g ai/ha): 20 | CASOB phytotoxicity rating (0-100 scale) ([18]; 250 g ai/ha): 35 | AMARE phytotoxicity rating (0-100 scale) ([19]; 125 g ai/ha): 99 | AMARE phytotoxicity rating (0-100 scale) ([19]; 250 g ai/ha): 100 | DIGSA phytotoxicity rating (0-100 scale) ([20]; 125 g ai/ha): 75 | DIGSA phytotoxicity rating (0-100 scale) ([20]; 250 g ai/ha): 80 | ABUTH phytotoxicity rating (0-100 scale) ([21]; 125 g ai/ha): 55 | ABUTH phytotoxicity rating (0-100 scale) ([21]; 250 g ai/ha): 60 | CHEAL phytotoxicity rating (0-100 scale) ([22]; 125 g ai/ha): 100 | CHEAL phytotoxicity rating (0-100 scale) ([22]; 250 g ai/ha): 100 | SORHA phytotoxicity rating (0-100 scale) ([23]; 125 g ai/ha): 35 | SORHA phytotoxicity rating (0-100 scale) ([23]; 250 g ai/ha): 75 | IPOHE phytotoxicity rating (0-100 scale) ([24]; 125 g ai/ha): 0 | IPOHE phytotoxicity rating (0-100 scale) ([24]; 250 g ai/ha): 10 | ECHCG phytotoxicity rating (0-100 scale) ([25]; 125 g ai/ha): 35 | ECHCG phytotoxicity rating (0-100 scale) ([25]; 250 g ai/ha): 60 | AMBEL phytotoxicity rating (0-100 scale) ([26]; 125 g ai/ha): 50 | AMBEL phytotoxicity rating (0-100 scale) ([26]; 250 g ai/ha): 55
